According to US5486469A, “Thermostable Fervidobacterium pullulanases” (Novo Nordisk A/S, priority 1991, dated 1996):
Read-outs that look alike come from different tables or passages of the source.

Target: T1, Fervidobacterium sp. Ven 5, DSM 6204 pullulanase, purified native enzyme (Fervidobacterium pennivorans, UniProt Q9XDB5)
T1 construct: Ven 5; single SDS-PAGE band of 78 kDa; not the E. coli clone PL2125
T1 sequence (Q9XDB5 29-849): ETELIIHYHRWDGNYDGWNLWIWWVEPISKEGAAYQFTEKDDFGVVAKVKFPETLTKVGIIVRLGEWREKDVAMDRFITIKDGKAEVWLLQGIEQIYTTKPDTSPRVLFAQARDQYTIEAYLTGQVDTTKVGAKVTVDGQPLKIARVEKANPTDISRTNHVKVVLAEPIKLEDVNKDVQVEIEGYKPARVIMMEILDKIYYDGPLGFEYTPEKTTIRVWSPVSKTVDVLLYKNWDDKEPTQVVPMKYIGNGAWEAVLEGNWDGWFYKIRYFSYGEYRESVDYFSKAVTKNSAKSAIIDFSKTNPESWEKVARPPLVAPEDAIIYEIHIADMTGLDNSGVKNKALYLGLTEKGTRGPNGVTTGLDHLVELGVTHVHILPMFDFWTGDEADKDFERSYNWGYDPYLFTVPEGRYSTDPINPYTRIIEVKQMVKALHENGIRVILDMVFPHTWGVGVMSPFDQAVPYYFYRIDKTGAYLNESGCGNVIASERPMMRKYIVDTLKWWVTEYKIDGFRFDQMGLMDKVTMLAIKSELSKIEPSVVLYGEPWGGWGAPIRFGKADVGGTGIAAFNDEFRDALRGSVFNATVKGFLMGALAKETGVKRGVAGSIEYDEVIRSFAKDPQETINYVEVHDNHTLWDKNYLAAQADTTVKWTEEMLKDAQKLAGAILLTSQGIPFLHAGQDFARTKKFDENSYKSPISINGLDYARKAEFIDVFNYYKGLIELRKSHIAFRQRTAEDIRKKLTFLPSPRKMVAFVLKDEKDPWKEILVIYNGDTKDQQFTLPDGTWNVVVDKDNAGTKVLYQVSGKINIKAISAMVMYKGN
Experiment: Influence of cyclodextrins and EDTA on pullulytic activity (reducing sugars liberated from pullulan)
Type: biochemical
Conditions: for Influence on the pullulytic activity (in words): up to 5 mM
Procedure: Pullulanase activity was measured by determining the amount of reducing sugars liberated during incubation with pullulan at 85° C. and pH 6.0. The activity of 1 U of pullulanase was defined as that amount of enzyme which liberates 1 μmol of reducing sugar per minute using maltose as a standard. The enzymatic reactions were conducted in 50 mM sodium-phosphate buffer, pH 6.0, the concentration of the substrate was 0.5% (w/v).
The reaction mixture was prepared by adding 50 μl enzyme solution to 200 μl substrate solution. The mixture was incubated at 85° C. for 5 minutes, cooled and diluted with 2.5 ml water. After incubation 250 μl dinitrosalicylic acid reagent (i.e. dinitrosalicylic acid 1 g, 2 N NaOh 20 ml, K-Na-tartrate×4 H2 O 30 g, and distilled water 100 ml) were added. The optical density was measured at 546 nm against a mixture which was not incubated.
6) Influence of metal ions,
The concentration of inhibitors was:
Metal ions and cyclodextrins
The purified pullulanase obtained according to Ex. 2 was subjected to characterization using the method for analyzing pullulanase activity described in Ex. 1.
To investigate the influence of metal ions, cyclodextrins and various glucose polymers on the activity of the pullulanase the purified enzyme was incubated with a 0.5% pullulan solution (pH 6.0) in the presence of up to 5 mM of metal ions and cyclodextrins. Amylose, starch, glycogen, pullulan and branched oligosaccharides were added in concentrations of up to 0.05%.

[1] = pH 6, read-out: Activity (%) of pullulanase in the presence of inhibitor

inhibition at 5000 µM (5 mM inhibitor, 0.5% pullulan solution, pH 6.0, 1.0 U/ml pullulanase, no inhibitor = 100, read-out: Activity (%) of pullulanase in the presence of inhibitor) | Compound | inhibition at 5000 µM [1] | Influence on the pullulytic activity (in words) (0.5% pullulan solution, pH 6.0)
 | O=C(O)CN(CCN(CC(=O)O)CC(=O)O)CC(=O)O [EDTA] | 100% | did not influence the pullulytic activity
 | OCC1OC2OC3C(CO)OC(OC4C(CO)OC(OC5C(CO)OC(OC6C(CO)OC(OC7C(CO)OC(OC1C(O)C2O)C(O)C7O)C(O)C6O)C(O)C5O)C(O)C4O)C(O)C3O (stereo not drawn) [α-Cyclodextrin] | 57% | decreased the activity of the enzyme slightly
4% | OCC1OC2OC3C(CO)OC(OC4C(CO)OC(OC5C(CO)OC(OC6C(CO)OC(OC7C(CO)OC(OC8C(CO)OC(OC1C(O)C2O)C(O)C8O)C(O)C7O)C(O)C6O)C(O)C5O)C(O)C4O)C(O)C3O (stereo not drawn) [β-Cyclodextrin] |  | inhibited completely
